Laboratory results as given in ChEMBL document CHEMBL4414641, “Chemical Constituents of Anneslea fragrans and Their Antiausterity Activity against the PANC-1 Human Pancreatic Cancer Cell Line” (J Nat Prod, 2019).
The source made the active and inactive calls. The calls are words filed in the database; no cut-off is given here.

What was measured:
PANC-1 [1] = test: Anti-austerity activity against nutrient-deprived human PANC1 cells assessed as cell death incubated for 24 hrs by WST-8 assay; assay type: functional
PANC-1 [2] = test: Cytotoxicity against nutrient-rich DMEM cultured human PANC1 cells at PC50 incubated for 24 hrs by WST-8 assay; assay type: cell-based; details: panc-1, 24 h
PANC-1 [3] = test: Inhibition of cell migration in human PANC1 cells assessed as closed wound area at 100 uM cultured in nutrient rich DMEM medium measured within 24 hrs by quantitative real-time imaging based wound healing assay (reference value: 100%); assay type: functional; set-up: scale not given: the % may be the effect or the level left
PANC-1 [4] = test: Inhibition of cell migration in human PANC1 cells assessed as decrease in velocity of cell migration at 100 uM cultured in nutrient rich DMEM medium measured every 15 mins for 72 hrs by quantitative real-time imaging analysis; assay type: functional, cell-based
PANC-1 [5] = test: Inhibition of cell migration in human PANC1 cells assessed as open wound area at 100 uM cultured in nutrient rich DMEM medium measured after 24 hrs by quantitative real-time imaging based wound healing assay relative to control; assay type: functional; set-up: scale not given: the % may be the effect or the level left
PANC-1 [6] = test: Inhibition of cell migration in human PANC1 cells assessed as open wound area at 100 uM cultured in nutrient rich DMEM medium measured after 48 hrs by quantitative real-time imaging based wound healing assay (reference value: 12%); assay type: functional; set-up: scale not given: the % may be the effect or the level left
PANC-1 [7] = test: Inhibition of cell migration in human PANC1 cells assessed as open wound area at 100 uM cultured in nutrient rich DMEM medium measured after 72 hrs by quantitative real-time imaging based wound healing assay (reference value: 5%); assay type: functional; set-up: scale not given: the % may be the effect or the level left
PANC-1 [8] = test: Inhibition of cell migration in human PANC1 cells at 100 uM cultured in nutrient rich DMEM medium measured every 15 mins for 72 hrs by quantitative real-time imaging analysis; assay type: functional, cell-based

Row | Compound | PC50 (PANC-1 [1]) [µM] | Activity (PANC-1 [2]) | further results
1 | C[C@@H]1O[C@@H](O[C@H]2[C@H](Oc3c(-c4ccc(O)cc4)oc4cc(O)cc(O)c4c3=O)O[C@H](CO)[C@@H](O)[C@@H]2O)[C@H](O)[C@H](O)[C@H]1O | 17.4 | Non-Toxic | –
2 | O=C(CCc1ccc(O)c(O)c1)c1ccc(O)cc1O | – | Non-Toxic | –
3 | O=C(CCc1ccc(O)c(O)c1)c1ccc(O[C@@H]2O[C@H](CO)[C@@H](O)[C@H](O)[C@H]2O)cc1O | 10.4 | Non-Toxic | –
4 | O=C(CCc1ccc(O)cc1)c1ccc(O)cc1O[C@@H]1O[C@H](CO)[C@@H](O)[C@H](O)[C@H]1O | >100 | Non-Toxic | –
5 | O=C(/C(O)=C/c1ccc(O)c(O)c1)c1ccc(O[C@H]2COC(=O)[C@@H]2O)cc1O | >100 | Non-Toxic | –
6 | CC1(C)OC[C@H]2O[C@@H](Oc3ccc(C(=O)CCc4ccc(O)cc4)c(O)c3)[C@H](O)[C@@H](O)[C@@H]2O1 | 60.9 | Non-Toxic | Activity (PANC-1 [3]): 38%; inhibition (PANC-1 [4]): Active; Activity (PANC-1 [5]): 93%; Activity (PANC-1 [6]): 81%; Activity (PANC-1 [7]): 72%; inhibition (PANC-1 [8]): Active
7 | CC[C@H](/C=C/[C@@H](C)[C@H]1CC[C@H]2C3=CC[C@H]4C[C@@H](O)CC[C@]4(C)[C@H]3CC[C@]12C)C(C)C | 58.1 | Non-Toxic | –
8 | Oc1cc(O)c2c(c1)O[C@H](c1ccc(O)c(O)c1)[C@H](O)C2 [(-)-EPICATECHIN] | 14.7 | Non-Toxic | –
9 | C[C@@H]1O[C@@H](Oc2c(-c3ccc(O)cc3)oc3cc(O)cc(O)c3c2=O)[C@H](O)[C@H](O)[C@H]1O [AFZELIN] | 8.9 | Non-Toxic | –
10 | COc1cc(C[C@H]2C(=O)OC[C@@H]2Cc2ccc(OC)c(OC)c2)ccc1O [ARCTIGENIN] | 0.7 | Non-Toxic | –
11 | C=C(C)[C@@H]1CC[C@]2(CO)CC[C@]3(C)[C@H](CC[C@@H]4[C@@]5(C)CC[C@H](O)C(C)(C)[C@@H]5CC[C@]43C)[C@@H]12 [BETULIN] | 8.4 | Non-Toxic | –
12 | O=C(/C=C/c1ccc(O)c(O)c1)c1ccc(O)cc1O [BUTEIN] | 67 | Non-Toxic | –
13 | O=C(CCc1ccc(O)cc1)c1ccc(O[C@@H]2O[C@H](CO)[C@@H](O)[C@H](O)[C@H]2O)cc1O [CONFUSOSIDE] | 82.6 | Non-Toxic | –
14 | O=c1c(O[C@@H]2O[C@H](CO)[C@@H](O)[C@H](O)[C@H]2O)c(-c2ccc(O)c(O)c2)oc2cc(O)cc(O)c12 [ISOQUERCETIN] | >100 | Non-Toxic | –
15 | COc1cc2oc(=O)ccc2cc1O [ISOSCOPOLETIN] | 26.9 | Non-Toxic | –
16 | C=C(C)[C@@H]1CC[C@]2(C)CC[C@]3(C)[C@H](CC[C@@H]4[C@@]5(C)CC[C@H](O)C(C)(C)[C@@H]5CC[C@]43C)[C@@H]12 [LUPEOL] | 38.6 | Non-Toxic | –
17 | C[C@@H]1O[C@@H](OC[C@H]2O[C@@H](Oc3c(-c4ccc(O)cc4)oc4cc(O)cc(O)c4c3=O)[C@H](O)[C@@H](O)[C@@H]2O)[C@H](O)[C@H](O)[C@H]1O [NICOTIFLOROSIDE] | 67.1 | Non-Toxic | –
18 | O=c1c(O)c(-c2ccc(O)c(O)c2)oc2cc(O)cc(O)c12 [QUERCETIN] | 21.8 | Non-Toxic | –
